Assay: Stability of substrates and metabolites in quality control samples (benchtop, autosampler, freeze-thaw)
Type: physicochemical
Settings: for Autosampler stability (24 h) Av. Accuracy (%): 10° C for 24 hours in the autosampler; for 3x freeze-thaw Av. Accuracy (%): after three freeze-thaw cycles; for Benchtop stability (19 h) Ac. Accuracy (%): room temperature for 19 hours
Source text: The method was validated for intra- and interday accuracy and precision, stability, and matrix effects. […] Validation details are provided in Supplementary Tables 5–7 and supplemental Fig. 3. Glucuronidase/sulfatase digests were used to isolate CYP-specific metabolic activities, reducing interference from polymorphic UDP-glucuronosyltransferase (UGT) and sulfotransferase isoforms.
Supplemental table 6: Stability of the substrates and metabolites. Quality control samples were left at room temperature for 19 hours (benchtop stability) and at 10° C for 24 hours in the autosampler (autosampler stability) or were measured after three freeze-thaw cycles. Stability samples were measured against a freshly prepared set of calibrators and quality control samples.

Row | Structure (SMILES) | Autosampler stability (24 h) Av. Accuracy (%) (QC conc. 0,5 ng/ml) | 3x freeze-thaw Av. Accuracy (%) (QC conc. 0,5 ng/ml) | Benchtop stability (19 h) Ac. Accuracy (%) (QC conc. 0,5 ng/ml) | Autosampler stability (24 h) Av. Accuracy (%) (QC conc. 0,25 ng/ml) | 3x freeze-thaw Av. Accuracy (%) (QC conc. 0,25 ng/ml) | Benchtop stability (19 h) Ac. Accuracy (%) (QC conc. 0,25 ng/ml) | Autosampler stability (24 h) Av. Accuracy (%) (QC conc. 60 ng/ml) | 3x freeze-thaw Av. Accuracy (%) (QC conc. 60 ng/ml) | Benchtop stability (19 h) Ac. Accuracy (%) (QC conc. 60 ng/ml) | Autosampler stability (24 h) Av. Accuracy (%) (QC conc. 150 ng/ml) | 3x freeze-thaw Av. Accuracy (%) (QC conc. 150 ng/ml) | Benchtop stability (19 h) Ac. Accuracy (%) (QC conc. 150 ng/ml) | Autosampler stability (24 h) Av. Accuracy (%) (QC conc. 1,5 ng/ml) | 3x freeze-thaw Av. Accuracy (%) (QC conc. 1,5 ng/ml) | Benchtop stability (19 h) Ac. Accuracy (%) (QC conc. 1,5 ng/ml) | 3x freeze-thaw Av. Accuracy (%) (QC conc. 30 ng/ml) | further results
1 | COc1ccc2nc([S+]([O-])Cc3ncc(CO)c(OC)c3C)[nH]c2c1 (stereo not shown) [5-OH-omeprazole] | 112,52% | 105,73% | 95,94% | 90,94% | 101,98% | 99,1% | 104,61% | 99,23% | 99,68% | 97,73% | 100,57% | 92,79% | 102,58% | 103,03% | 98,98% |  | 
2 | Cn1c(=O)c2c(ncn2C)n(C)c1=O [caffeine, reference compound] |  |  |  |  |  |  |  |  |  |  |  |  |  |  |  | 107,18% | 3x freeze-thaw Av. Accuracy (%) (QC conc. 10 ng/ml): 107,62%; 3x freeze-thaw Av. Accuracy (%) (QC conc. 1200 ng/ml): 105,12%; 3x freeze-thaw Av. Accuracy (%) (QC conc. 3000 ng/ml): 97,54%
3 | Cc1ncc2n1-c1ccc(Cl)cc1C(c1ccccc1F)=NC2 [midazolam, reference compound] |  |  |  |  |  |  |  |  |  |  |  |  |  |  |  | 97,41% | Autosampler stability (24 h) Av. Accuracy (%) (QC conc. 0,1 ng/ml): 107,46%; 3x freeze-thaw Av. Accuracy (%) (QC conc. 0,1 ng/ml): 104,96%; Benchtop stability (19 h) Ac. Accuracy (%) (QC conc. 0,1 ng/ml): 106,81%; Autosampler stability (24 h) Av. Accuracy (%) (QC conc. 0,3 ng/ml): 104,87%; 3x freeze-thaw Av. Accuracy (%) (QC conc. 0,3 ng/ml): 98,61%; Benchtop stability (19 h) Ac. Accuracy (%) (QC conc. 0,3 ng/ml): 104,39%; Autosampler stability (24 h) Av. Accuracy (%) (QC conc. 0,05 ng/ml): 103,51%; 3x freeze-thaw Av. Accuracy (%) (QC conc. 0,05 ng/ml): 109,93%; Benchtop stability (19 h) Ac. Accuracy (%) (QC conc. 0,05 ng/ml): 89,44%; Autosampler stability (24 h) Av. Accuracy (%) (QC conc. 12 ng/ml): 110,93%; 3x freeze-thaw Av. Accuracy (%) (QC conc. 12 ng/ml): 103,85%; Benchtop stability (19 h) Ac. Accuracy (%) (QC conc. 12 ng/ml): 109,38%; Autosampler stability (24 h) Av. Accuracy (%) (QC conc. 30 ng/ml): 99,76%; Benchtop stability (19 h) Ac. Accuracy (%) (QC conc. 30 ng/ml): 99,8%
4 | CC(C)NC(=O)NS(=O)(=O)c1cnccc1Nc1cccc(CO)c1 [OH-torsemide] |  |  |  |  |  |  |  |  |  |  |  |  |  |  |  |  | Autosampler stability (24 h) Av. Accuracy (%) (QC conc. 1 ng/ml): 109,17%; 3x freeze-thaw Av. Accuracy (%) (QC conc. 1 ng/ml): 105,26%; Benchtop stability (19 h) Ac. Accuracy (%) (QC conc. 1 ng/ml): 106,91%; Autosampler stability (24 h) Av. Accuracy (%) (QC conc. 2 ng/ml): 113,11%; 3x freeze-thaw Av. Accuracy (%) (QC conc. 2 ng/ml): 105,85%; Benchtop stability (19 h) Ac. Accuracy (%) (QC conc. 2 ng/ml): 107,98%; Autosampler stability (24 h) Av. Accuracy (%) (QC conc. 6 ng/ml): 109,32%; 3x freeze-thaw Av. Accuracy (%) (QC conc. 6 ng/ml): 107,78%; Benchtop stability (19 h) Ac. Accuracy (%) (QC conc. 6 ng/ml): 111,3%; Autosampler stability (24 h) Av. Accuracy (%) (QC conc. 240 ng/ml): 108,82%; 3x freeze-thaw Av. Accuracy (%) (QC conc. 240 ng/ml): 104,11%; Benchtop stability (19 h) Ac. Accuracy (%) (QC conc. 240 ng/ml): 106,75%; Autosampler stability (24 h) Av. Accuracy (%) (QC conc. 600 ng/ml): 99,55%; 3x freeze-thaw Av. Accuracy (%) (QC conc. 600 ng/ml): 96,28%; Benchtop stability (19 h) Ac. Accuracy (%) (QC conc. 600 ng/ml): 99,14%
5 | COCCc1ccc(OCC(O)CNC(C)C)cc1 (stereo not shown) [metoprolol, reference compound] | 105,36% | 109,56% | 106,29% | 105,01% | 99,7% | 92,77% | 111,39% | 105,26% | 110,41% | 100,37% | 98,84% | 102,76% | 112,83% | 103,63% | 111,4% |  | 
